{"source": "ChEMBL document CHEMBL5223113", "about": "“Several non-salt and solid thienopyridine derivatives as oral P2Y12 receptor inhibitors with good stability” (Bioorg Med Chem Lett, 2022)", "key": {"[1]": {"test": "Stability in human plasma assessed as compound remaining measured at 180 mins relative to control", "format": "ADME, cell-free", "details": "read-out: Stability"}, "[2]": {"test": "Stability in human plasma assessed as compound remaining measured at 60 mins relative to control", "format": "ADME, cell-free", "details": "read-out: Stability"}, "[3]": {"test": "Toxicity in rat assessed as bleeding time by measuring ratio of ED200 to ED50 ratio by tail cutting assay", "details": "in vivo"}, "[4]": {"test_system": "Rattus norvegicus", "test": "Inhibition of thrombosis in anteriovenous bypassed rat at 1 mg/kg relative to control", "format": "functional"}, "[5]": {"test": "Toxicity in beagle dog assessed as electrocardiogram at 100 to 300 mg/kg/day oral gavage observed for 14 days", "format": "organism-based, Canis lupus familiaris", "details": "in vivo, 336 h, dose 100-300 mg/kg/day, time 14 day"}, "[6]": {"test": "Toxicity in beagle dog assessed as electrocardiogram at 2000 mg/kg oral gavage observed for 14 days", "format": "organism-based, Canis lupus familiaris", "details": "in vivo, 336 h, time 14 day"}, "[7]": {"species_on_record": "Rattus norvegicus", "test": "Inhibition of thrombosis in anteriovenous bypassed rat", "format": "functional"}, "[8]": {"test": "Stability in human plasma assessed as compound remaining measured at 20 mins relative to control", "format": "ADME, cell-free", "details": "read-out: Stability"}, "[9]": {"test": "Toxicity in beagle dog assessed as decrease in platelet aggregation at 100 mg/kg/day oral gavage observed for 14 days", "format": "organism-based, Canis lupus familiaris", "details": "in vivo, 336 h, time 14 day"}, "[10]": {"test": "Toxicity in beagle dog assessed as increase in ALP at 100 mg/kg/day oral gavage observed for 14 days", "format": "organism-based, Canis lupus familiaris", "details": "in vivo, 336 h, time 14 day"}, "[11]": {"test": "Stability in human plasma assessed as compound remaining measured at 90 mins relative to control", "format": "ADME, cell-free", "details": "read-out: Stability"}, "[12]": {"test": "Stability in human plasma assessed as compound remaining measured at 360 mins relative to control", "format": "ADME, cell-free", "details": "read-out: Stability"}, "[13]": {"test": "Stability in human plasma assessed as compound remaining measured at 5 mins relative to control", "format": "ADME, cell-free", "details": "read-out: Stability"}, "[14]": {"test_system": "Rattus norvegicus", "test": "Inhibition of thrombosis in anteriovenous bypassed rat at 3 mg/kg relative to control", "format": "functional"}, "[15]": {"test_system": "Rattus norvegicus", "test": "Anti-platelet activity against ADP-induced platelet aggregation in rat assessed as inhibition of platelet aggregation at 0.5 mg/kg relative to control", "format": "functional"}, "[16]": {"test": "Toxicity in beagle dog assessed as swelling of hepatocyte at 100 mg/kg/day oral gavage observed for 14 days", "format": "organism-based, Canis lupus familiaris", "details": "hepatocytes, 336 h, time 14 day"}, "[17]": {"test": "Stability in human plasma assessed as compound remaining measured at 240 mins relative to control", "format": "ADME, cell-free", "details": "read-out: Stability"}, "[18]": {"test": "Stability in human plasma assessed as compound remaining measured at 10 mins relative to control", "format": "ADME, cell-free", "details": "read-out: Stability"}, "[19]": {"test": "Toxicity in beagle dog assessed as vomiting at 100 to 300 mg/kg/day oral gavage observed for 14 days", "format": "organism-based, Canis lupus familiaris", "details": "in vivo, 336 h, dose 100-300 mg/kg/day, time 14 day"}, "[20]": {"test": "Stability in human plasma assessed as compound remaining measured at 30 mins relative to control", "format": "ADME, cell-free", "details": "read-out: Stability"}, "[21]": {"test": "Toxicity in beagle dog assessed as ALP level at 100 to 300 mg/kg/day oral gavage observed for 14 days", "format": "organism-based, Canis lupus familiaris", "details": "in vivo, 336 h, dose 100-300 mg/kg/day, time 14 day"}, "[22]": {"test": "Toxicity in rat assessed as bleeding time by tail cutting assay", "details": "in vivo"}, "[23]": {"test": "Toxicity in beagle dog assessed as abnormality in blood and biochemical index at 100 to 300 mg/kg/day oral gavage observed for 14 days", "format": "organism-based, Canis lupus familiaris", "details": "in vivo, 336 h, dose 100-300 mg/kg/day, time 14 day"}, "[24]": {"test": "Stability in human plasma assessed as compound remaining measured at 150 mins relative to control", "format": "ADME, cell-free", "details": "read-out: Stability"}, "[25]": {"test": "Toxicity in beagle dog assessed as increase in liver weight at 100 mg/kg/day oral gavage observed for 14 days", "format": "organism-based, Canis lupus familiaris", "details": "in vivo, 336 h, time 14 day"}, "[26]": {"test": "Stability in human plasma assessed as compound remaining measured at 45 mins relative to control", "format": "ADME, cell-free", "details": "read-out: Stability"}, "[27]": {"test": "Toxicity in beagle dog assessed as mydriasis at 100 mg/kg/day oral gavage observed for 14 days", "format": "organism-based, Canis lupus familiaris", "details": "in vivo, 336 h, time 14 day"}, "[28]": {"test": "Stability in human plasma assessed as compound remaining measured at 120 mins relative to control", "format": "ADME, cell-free", "details": "read-out: Stability"}, "[29]": {"test_system": "Rattus norvegicus", "test": "Anti-platelet activity against ADP-induced platelet aggregation in rat assessed as inhibition of platelet aggregation at 2 mg/kg relative to control", "format": "functional"}, "[30]": {"test_system": "Rattus norvegicus", "test": "Inhibition of thrombosis in anteriovenous bypassed rat at 30 mg/kg relative to control", "format": "functional"}, "[31]": {"test": "Toxicity in beagle dog assessed as death at 2000 mg/kg oral gavage observed for 14 days", "format": "organism-based, Canis lupus familiaris", "details": "in vivo, 336 h, time 14 day"}, "[32]": {"test": "Stability in human plasma assessed as compound remaining measured at 300 mins relative to control", "format": "ADME, cell-free", "details": "read-out: Stability"}, "[33]": {"test_system": "Rattus norvegicus", "test": "Anti-platelet activity against ADP-induced platelet aggregation in rat assessed as inhibition of platelet aggregation at 1 mg/kg relative to control", "format": "functional"}, "[34]": {"test": "Toxicity in beagle dog assessed as emesis at 100 mg/kg/day oral gavage observed for 14 days", "format": "organism-based, Canis lupus familiaris", "details": "in vivo, 336 h, time 14 day"}, "[35]": {"test": "Toxicity in beagle dog assessed as ALT level at 100 to 300 mg/kg/day oral gavage observed for 14 days", "format": "organism-based, Canis lupus familiaris", "details": "in vivo, 336 h, dose 100-300 mg/kg/day, time 14 day"}, "[36]": {"test": "Toxicity in beagle dog assessed as dilated pupil at 100 to 300 mg/kg/day oral gavage observed for 14 days", "format": "organism-based, Canis lupus familiaris", "details": "in vivo, 336 h, dose 100-300 mg/kg/day, time 14 day"}, "[37]": {"test": "Toxicity in beagle dog assessed as abnormality in blood and biochemical index at 2000 mg/kg oral gavage observed for 14 days", "format": "organism-based, Canis lupus familiaris", "details": "in vivo, 336 h, time 14 day"}, "[38]": {"test_system": "Rattus norvegicus", "test": "Inhibition of thrombosis in anteriovenous bypassed rat at 10 mg/kg relative to control", "format": "functional"}, "[39]": {"species_on_record": "Rattus norvegicus", "test": "Anti-platelet activity against ADP-induced platelet aggregation in rat assessed as inhibition of platelet aggregation", "format": "functional"}, "[40]": {"test_system": "Rattus norvegicus", "test": "Anti-platelet activity against ADP-induced platelet aggregation in rat assessed as inhibition of platelet aggregation at 4 mg/kg relative to control", "format": "functional"}, "[41]": {"test_system": "Rattus norvegicus", "test": "Anti-platelet activity against ADP-induced platelet aggregation in rat assessed as inhibition of platelet aggregation at 8 mg/kg relative to control", "format": "functional"}}}
{"smiles": "C/C=C/C(=O)Oc1cc2c(s1)CCN([C@H](C(=O)OC)c1ccccc1Cl)C2", "values": [{"measurement": "remaining at 3 h", "setting": "[1]", "result": 0.231, "unit": "%"}, {"measurement": "remaining at 1 h", "setting": "[2]", "result": 18.3, "unit": "%"}, {"measurement": "selectivity ratio", "setting": "[3]", "result": 1.97}, {"measurement": "inhibition in vivo at 1 mg/kg", "setting": "[4]", "result": 18.3, "unit": "%"}, {"measurement": "Activity", "setting": "[5]", "result": "Non-Toxic"}, {"measurement": "Activity", "setting": "[6]", "result": "Non-Toxic"}, {"measurement": "ED50", "setting": "[7]", "result": 11.8, "unit": "mg/kg"}, {"measurement": "remaining at 20 min", "setting": "[8]", "result": 60.5, "unit": "%"}, {"measurement": "Activity", "setting": "[9]", "result": "Toxic"}, {"measurement": "Activity", "setting": "[10]", "result": "Toxic"}, {"measurement": "remaining at 1.5 h", "setting": "[11]", "result": 5.49, "unit": "%"}, {"measurement": "remaining at 6 h", "setting": "[12]", "result": 0, "unit": "%"}, {"measurement": "remaining at 5 min", "setting": "[13]", "result": 91.7, "unit": "%"}, {"measurement": "inhibition in vivo at 3 mg/kg", "setting": "[14]", "result": 43.2, "unit": "%"}, {"measurement": "inhibition in vivo at 0.5 mg/kg", "setting": "[15]", "result": 22.4, "unit": "%"}, {"measurement": "Activity", "setting": "[16]", "result": "Toxic"}, {"measurement": "remaining at 4 h", "setting": "[17]", "result": 0, "unit": "%"}, {"measurement": "remaining at 10 min", "setting": "[18]", "result": 82.3, "unit": "%"}, {"measurement": "Activity", "setting": "[19]", "result": "Non-Toxic"}, {"measurement": "remaining at 0.5 h", "setting": "[20]", "result": 44.7, "unit": "%"}, {"measurement": "Activity", "setting": "[21]", "result": "Non-Toxic"}, {"measurement": "ED200", "setting": "[22]", "result": 1.977, "unit": "mg/kg"}, {"measurement": "Activity", "setting": "[23]", "result": "Non-Toxic"}, {"measurement": "remaining at 2.5 h", "setting": "[24]", "result": 0.588, "unit": "%"}, {"measurement": "Activity", "setting": "[25]", "result": "Toxic"}, {"measurement": "remaining at 0.75 h", "setting": "[26]", "result": 28, "unit": "%"}, {"measurement": "Activity", "setting": "[27]", "result": "Toxic"}, {"measurement": "remaining at 2 h", "setting": "[28]", "result": 1.7, "unit": "%"}, {"measurement": "inhibition in vivo at 2 mg/kg", "setting": "[29]", "result": 77, "unit": "%"}, {"measurement": "inhibition in vivo at 30 mg/kg", "setting": "[30]", "result": 64.2, "unit": "%"}, {"measurement": "Activity", "setting": "[31]", "result": "Non-Toxic"}, {"measurement": "remaining at 5 h", "setting": "[32]", "result": 0, "unit": "%"}, {"measurement": "inhibition in vivo at 1 mg/kg", "setting": "[33]", "result": 50.2, "unit": "%"}, {"measurement": "Activity", "setting": "[34]", "result": "Toxic"}, {"measurement": "Activity", "setting": "[35]", "result": "Non-Toxic"}, {"measurement": "Activity", "setting": "[36]", "result": "Non-Toxic"}, {"measurement": "Activity", "setting": "[37]", "result": "Non-Toxic"}, {"measurement": "inhibition in vivo at 10 mg/kg", "setting": "[38]", "result": 56, "unit": "%"}]}
{"smiles": "CCC/C=C/C(=O)Oc1cc2c(s1)CCN([C@H](C(=O)OC)c1ccccc1Cl)C2", "values": [{"measurement": "inhibition in vivo at 0.5 mg/kg", "setting": "[15]", "result": 19.5, "unit": "%"}, {"measurement": "inhibition in vivo at 2 mg/kg", "setting": "[29]", "result": 74.3, "unit": "%"}, {"measurement": "inhibition in vivo at 1 mg/kg", "setting": "[33]", "result": 52.8, "unit": "%"}]}
{"smiles": "CC/C=C/C(=O)Oc1cc2c(s1)CCN([C@H](C(=O)OC)c1ccccc1Cl)C2", "values": [{"measurement": "ED50", "setting": "[39]", "result": 1.23, "unit": "mg/kg"}, {"measurement": "inhibition in vivo at 0.5 mg/kg", "setting": "[15]", "result": 26.2, "unit": "%"}, {"measurement": "inhibition in vivo at 4 mg/kg", "setting": "[40]", "result": 78.4, "unit": "%"}, {"measurement": "inhibition in vivo at 8 mg/kg", "setting": "[41]", "result": 100, "unit": "%"}, {"measurement": "inhibition in vivo at 2 mg/kg", "setting": "[29]", "result": 62.9, "unit": "%"}, {"measurement": "inhibition in vivo at 1 mg/kg", "setting": "[33]", "result": 38.2, "unit": "%"}]}
